Reference: patent US20040023972A1, “Use of substituted imidazo[1,2-a]-pyridin-, -pyrimidin-and-pyrazin-3-yl-amine derivatives in the preparation of medicaments for inhibiting NOS” (Gruenenthal GmbH, priority 2000, published 2004)

Target: T1, NO synthase (Rattus norvegicus, UniProt P29476)
T1 construct: the supernatant was then removed by decantation and frozen in portions at −80° C; from tissue; host or cells: rat cerebellum, 20,000 g supernatant of homogenate
Assay: HTS-NOS assay (NOS assay): conversion of radioactive arginine, cation-exchanger filter plate
Assay type: biochemical
Conditions: for inhibition at 10 µM: read-out: HTS-NOS assay: % inhibition (10 μM)
Method in brief: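 Percent inhibition was derived by comparing remaining radioactive arginine with compound-free controls. Arginine retained on phosphate cation-exchanger filters was counted after citrulline washout, following a 5-60 min room-temperature (25 °C) reaction of labelled arginine, NADPH-containing medium and rat cerebellar homogenate supernatant.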

Row | Compound | inhibition at 10 µM [%] | other results
1 | C#[N+]CCCCCCN(C(C)=O)c1c(-c2ccccn2)nc2cc(C)cc(C)n12 [Example 289, {6-[acetyl-(5,7-dimethyl-2-pyridin-2-yl-imidazo[1,2-a]pyridin-3-yl)-amino]-hexyl}-methylidyne-ammonium] |  | HTS-NOS assay: % inhibition (10 μM): 63%
2 | CC(=O)N(c1c(-c2ccco2)nc2cc(C)ccn12)C(C)(C)CC(C)(C)C [Example 149, N-(2-furan-2-yl-7-methyl-imidazo[1,2-a]pyridin-3-yl)-N-(1,1,3,3-tetramethylbutyl)-acetamide] | 55 | 
3 | Cc1cccn2c(NC(C)(C)CC(C)(C)C)c(-c3cc4ccccc4o3)nc12 [Example 115, (2-Benzofuran-2-yl-8-methyl-imidazo[1,2-a]pyridin-3-yl)-(1,1,3,3-tetramethyl-butyl)-amine] | 59 | 
4 | Cc1cc(C)n2c(NC(C)(C)C)c(C)nc2c1 [Example 14, Tert-butyl-(2,5,7-trimethyl-imidazo[1,2-a]-pyridin-3-yl)-amine] | 67 | 
5 | Cc1ccn2c(NC3CCCCC3)c(-c3cc(C)c(C)o3)nc2c1 [Example 105, Cyclohexyl-[2-(4,5-dimethyl-furan-2-yl)-7-methyl-imidazo[1,2-a]pyridin-3-yl]-amine] | 65 | 
6 | COc1ccccc1-c1nc2cc(C)cc(C)n2c1N(C(C)=O)C(C)(C)CC(C)(C)C [Example 172, N-[2-(2-methoxy-phenyl)-5,7-dimethyl-imidazo[1,2-a]pyridin-3-yl]-N-(1,1,3,3-tetramethyl-butyl)-acetamide] | 62 | 
7 | CCCCNc1c(-c2ccc(N(C)C)c3ccccc23)nc2cnccn12 [Example 136, Butyl-[2-(4-dimethylamino-naphthalen-1-yl)-imidazo[1,2-a]pyrazin-3-yl]-amine] | 56 | 
8 | Cc1ccn2c(NC(C)(C)CC(C)(C)C)c(-c3cc4ccccc4o3)nc2c1 [Example 56, (2-Benzofuran-2-yl-7-methyl-imidazo[1,2-a]pyridin-3-yl)-(1,1,3,3-tetramethyl-butyl)-amine] | 60 | 
9 | C#[N+]CCCCCCNc1c(-c2cccc3ccccc23)nc2cc(C)ccn12 [Example 122, Methylidyne-[6-(7-methyl-2-naphthalen-1-yl-imidazo[1,2-a]pyridin-3-ylamino)-hexyl]-ammonium] |  | HTS-NOS assay: % inhibition (10 μM): 53%
10 | Cc1ccn2c(NC(C)(C)CC(C)(C)C)c(-c3ccc(Cl)cc3Cl)nc2c1 [Example 85, [2-(2,4-Dichlorophenyl)-7-methyl-imidazo[1,2-a]pyridin-3-yl]-(1,1,3,3-tetramethyl-butyl)-amine] | 61 | 
11 | Cc1ccn2c(NC(C)(C)C)c(-c3ccccn3)nc2c1 [Example 76, Tert-butyl-(7-methyl-2-pyridin-2-yl-imidazo[1,2-a]pyridin-3-yl)-amine] | 67 | 
12 | [C-]#[N+]CCCCCCNc1c(-c2ccccc2OC)nc2cc(C)cc(C)n12 [Example 61, {6-[2-(2-Methoxy-phenyl)-5,7-dimethyl-imidazo[1,2-a]pyridin-3-ylamino]-hexyl}-methylidyne-ammonium] |  | HTS-NOS assay: % inhibition (10 μM): 73%
13 | CC(=O)N(c1c(-c2ccc(C(=O)O)o2)nc2cc(C)cc(C)n12)C(C)(C)CC(C)(C)C [Example 154, 5-{3-[acetyl-(1,1,3,3-tetramethyl-butyl)-amino]-5,7-dimethyl-imidazo[1,2-a]-pyridin-2-yl}-furan-2-carboxylic acid] | 60 | 
14 | CC(=O)N(c1c(C)nc2c(Br)cc(Br)cn12)C(C)(C)C [Example 288, N-tert-butyl-N-(6,8-dibromo-2-methyl-imidazo[1,2-a]pyridin-3-yl)-acetamide] | 62 | 
15 | CSc1ccc(-c2nc3cnccn3c2N(C(C)=O)C(C)(C)CC(C)(C)C)s1 [Example 235, N-[2-(5-methylsulfanyl-thiophen-2-yl)-imidazo[1,2-a]pyrazin-3-yl]-N-(1,1,3,3-tetramethyl-butyl)-acetamide] | 58 | 
16 | C#[N+]CCCCCCNc1c(-c2ccco2)nc2cc(C)cc(C)n12 [Example 45, [6-(2-Furan-2-yl-5,7-dimethyl-imidazo[1,2-a]pyridin-3-ylamino)-hexyl]-methylidyne-ammonium] |  | HTS-NOS assay: % inhibition (10 μM): 54%
17 | Cc1ccn2c(NC(C)(C)C)c(-c3ccc(CO)o3)nc2c1 [Example 64, [5-(3-Tert-butylamino-7-methyl-imidazo[1,2-a]pyridin-2-yl)-furan-2-yl]-methanol] | 52 | 
18 | CC(=O)N(c1c(C)cccc1C)c1c(-c2cccc(Oc3ccc(Cl)cc3)c2)nc2ccccn12 [Example 195, N-{2-[3-(4-chloro-phenoxy)-phenyl]-imidazo[1,2-a]pyridin-3-yl}-N-(2,6-dimethyl-phenyl)-acetamide] | 54 | 
19 | CC(=O)OCc1ccc(-c2nc3cc(C)cc(C)n3c2N(C(C)=O)c2c(C)cccc2C)o1 [Example 243, acetic acid 5-{3-[acetyl-(2,6-dimethyl-phenyl)-amino]-5,7-dimethyl-imidazo[1,2-a]pyridin-2-y}-furan-2-yl methyl ester] |  | HTS-NOS assay: % inhibition (10 μM): 62%

Row | Compound | inhibition at 10 µM [%] | other results
20 | CC(=O)N(c1c(C)cccc1C)c1c(-c2cccc(Cl)c2Cl)nc2cc(C)cc(C)n12 [Example 169, N-[2-(2,3-dichloro-phenyl)-5,7-dimethyl-imidazo[1,2-a]pyridin-3-yl]-N-(2,6-dimethyl-phenyl)-acetamide] | 57 | 
21 | CC(=O)N(c1c(-c2ccc(C(=O)O)s2)nc2ccccn12)C(C)(C)C [Example 218, 5-[3-(acetyl-tert-butyl-amino)-imidazo[1,2-a]pyridin-2-yl]-thiophene-2-carboxylic acid] | 60 | 
22 | C#[N+]CCCCCCN(C(C)=O)c1c(-c2ccccc2OC)nc2ccc([N+](=O)[O-])cn12 [Example 238, (6-{acetyl-[2-(2-methoxy-phenyl)-6-nitro-imidazo[1,2-a]pyridin-3-yl]-amino}-hexyl)-methylidyne-ammonium] |  | HTS-NOS assay: % inhibition (10 μM): 52%
23 | Cc1cc(C)n2c(NC(C)(C)CC(C)(C)C)c(-c3ccncc3)nc2c1 [Example 3, (5,7-Dimethyl-2-pyridin-4-yl-imidazo[1,2-a]-pyridin-3-yl)-(1,1,3,3-tetramethyl-butyl)-amine] | 60 | 
24 | Cc1cc(C)n2c(NC3CCCCC3)c(-c3ccoc3)nc2c1.Cl [Example 310, Cyclohexyl-(2-furan-3-yl-5,7-dimethyl-imidazo-[1,2-a]pyridin-3-yl)-amine hydrochloride] |  | NOS assay % inhibition (Table 5, concentration not given, hydrochloride): 52%
25 | Cc1ccn2c(NC3CCCCC3)c(C)nc2c1 [Example 69, Cyclohexyl-(2,7-dimethyl-imidazo[1,2-a]-pyridin-3-yl)-amine] | 55 | 
26 | COc1ccccc1-c1nc2cc(C)ccn2c1NC(C)(C)CC(C)(C)C [Example 101, [2-(2-Methoxy-phenyl)-7-methyl-imidazo[1,2-a]pyridin-3-yl]-(1,1,3,3-tetramethyl-butyl)-amine] | 58 | 
27 | CC(=O)N(c1c(-c2ccc(C3OCCO3)o2)nc2cc(C)cc(C)n12)C(C)(C)CC(C)(C)C [Example 188, N-[2-(5-[1,3]dioxolan-2-yl-furan-2-yl)-5,7-dimethyl-imidazo[1,2-a]pyridin-3-yl]-N-(1,1,3,3-tetramethyl-butyl)-acetamide] | 50 | 
28 | Cc1ccn2c(NC(C)(C)CC(C)(C)C)c(-c3cccnc3)nc2c1 [Example 15, (7-Methyl-2-pyridin-3-yl-imidazo[1,2-a]-pyridin-3-yl)-(1,1,3,3-tetramethyl-butyl)-amine] | 59 | 
29 | CCCCNc1c(-c2cccc(O)c2)nc2cc(C)cc(C)n12 [Example 73, 3-(3-Butylamino-5,7-dimethyl-imidazo[1,2-a]pyridin-2-yl)-phenol] | 61 | 
30 | [C-]#[N+]CCCCCCN(C(C)=O)c1c(-c2ccccc2OC)nc2cc(C)ccn12 [Example 281, (6-{acetyl-[2-(2-methoxy-phenyl)-7-methyl-imidazo[1,2-a]pyridin-3-yl]-amino}-hexyl)-methylidyne-ammonium] |  | HTS-NOS assay: % inhibition (10 μM): 62%
31 | CC(=O)N(c1c(-c2ccco2)nc2cc(C)ccn12)C(C)(C)C [Example 190, N-tert-butyl-N-(2-furan-2-yl-7-methyl-imidazo[1,2-a]pyridin-3-yl)-acetamide] | 69 | 
32 | CCc1ccn2c(NCc3ccccc3OC)c(-c3ccc(C)o3)nc2c1 [Example 315, [7-Ethyl-2-(5-methyl-furan-2-yl)-imidazo[1,2-a]pyridin-3-yl]-(2-methoxy-benzyl)-amine] | 32 | 
33 | CC(=O)N(c1c(C)cccc1C)c1c(-c2ccccc2C(F)(F)F)nc2ccc(C)cn12 [Example 261, N-(2,6-dimethyl-phenyl)-N-[6-methyl-2-(2-trifluorO-methyl-phenyl)-imidazo[1,2-a]pyridin-3-yl]-acetamide] |  | HTS-NOS assay: % inhibition (10 μM): 61%
34 | [C-]#[N+]CCCCCCNc1c(-c2ccccc2F)nc2cc(C)cc(C)n12 [Example 116, {6-[2-(2-Fluoro-phenyl)-5,7-dimethyl-imidazo[1,2-a]pyridin-3-ylamino]-hexyl}-methylidyne-ammonium] |  | HTS-NOS assay: % inhibition (10 μM): 60%
35 | CC(=O)N(c1c(-c2ccc(CO)o2)nc2cc(C)cc(C)n12)C(C)(C)CC(C)(C)C [Example 155, N-[2-(5-hydroxymethyl-furan-2-yl)-5,7-dimethyl-imidazo[1,2-a]pyridin-3-yl]-N-(1,1,3,3-tetramethyl-butyl)-acetamide] | 50 | 
36 | CC(=O)N(c1c(-c2ccc(C)cc2)nc2cc(C)ccn12)C(C)(C)CC(C)(C)C [Example 185, N-(7-methyl-2-p-tolyl-imidazo[1,2-a]pyridin-3-yl)-N-(1,1,3,3-tetramethyl-butyl)-acetamide] | 55 | 
37 | Cc1ccc(-c2nc3cc(C)cc(C)n3c2NC(C)(C)CC(C)(C)C)cc1 [Example 95, (5,7-Dimethyl-2-p-tolyl-imidazo[1,2-a]-pyridin-3-yl)-(1,1,3,3-tetramethyl-butyl)-amine] | 70 | 
